Experimental data as given in patent US8816084B1, “Crystals of morphinan derivative, manufacturing method thereof, and pharmaceutical composition using the same” (priority 2013, dated 2014).
Read-outs that look alike come from different tables or passages of the source.

Tests used:
[1] = result quoted from U.S. Pat. No. 7,803,942B2; hydrochloride; cited from earlier work
[2] = pH Stability Test; format: physicochemical; settings: 100 mg solid dissolved in 10 ml deionized water, pH meter; hydrochloride
Protocol: First, 100 mg of the X-form crystal solid of Examples 1 to 3, and the amorphous solid of Comparative Examples 1-6 were dissolved in 10 ml of deionized water respectively. Then, pH value of the resulting solutions was measured with a pH meter (Type No: Mettler Toledo MP 250). The measurement results are shown in Table 3, wherein the result of the amorphous and A-form crystals of Comparative Examples 4-9 was quoted from U.S. Pat. No. 7,803,942B2.

Row | Compound | pH [1] | pH [2]
1 | CN(C(=O)/C=C/c1ccoc1)[C@@H]1CC[C@@]2(O)[C@H]3Cc4ccc(O)c5c4[C@@]2(CCN3CC2CC2)[C@H]1O5.Cl (relative stereo) [Comparative Example 4, 17-cyclopropylmethyl-3,14β-dihydroxy-4,5α-epoxy-6β-[N-methyl-trans-3-(3-furyl)acrylamido]morphinan hydrochloride] | 3.7 | 
2 | CN(C(=O)/C=C/c1ccoc1)[C@@H]1CC[C@@]2(O)[C@H]3Cc4ccc(O)c5c4[C@@]2(CCN3CC2CC2)[C@H]1O5.Cl (relative stereo) [Comparative Example 6, 17-cyclopropylmethyl-3,14β-dihydroxy-4,5α-epoxy-6β-[N-methyl-trans-3-(3-furyl)acrylamido]morphinan hydrochloride] | 3.5 | 
3 | CN(C(=O)/C=C/c1ccoc1)[C@@H]1CC[C@@]2(O)[C@H]3Cc4ccc(O)c5c4[C@@]2(CCN3CC2CC2)[C@H]1O5.Cl (relative stereo) [Example 2, 17-cyclopropylmethyl-3,14β-dihydroxy-4,5α-epoxy-6β-[N-methyl-trans-3-(3-furyl)acrylamido]morphinan hydrochloride] |  | 3.6
4 | CN(C(=O)/C=C/c1ccoc1)[C@@H]1CC[C@@]2(O)[C@H]3Cc4ccc(O)c5c4[C@@]2(CCN3CC2CC2)[C@H]1O5.Cl (relative stereo) [Comparative Example 8, 17-cyclopropylmethyl-3,14β-dihydroxy-4,5α-epoxy-6β-[N-methyl-trans-3-(3-furyl)acrylamido]morphinan hydrochloride] | 5.4 | 
5 | CN(C(=O)/C=C/c1ccoc1)[C@@H]1CC[C@@]2(O)[C@H]3Cc4ccc(O)c5c4[C@@]2(CCN3CC2CC2)[C@H]1O5.Cl (relative stereo) [Comparative Example 5, 17-cyclopropylmethyl-3,14β-dihydroxy-4,5α-epoxy-6β-[N-methyl-trans-3-(3-furyl)acrylamido]morphinan hydrochloride] | 4.7 | 
6 | CN(C(=O)/C=C/c1ccoc1)[C@@H]1CC[C@@]2(O)[C@H]3Cc4ccc(O)c5c4[C@@]2(CCN3CC2CC2)[C@H]1O5.Cl (relative stereo) [Comparative Example 1, 17-cyclopropylmethyl-3,14β-dihydroxy-4,5α-epoxy-6β-[N-methyl-trans-3-(3-furyl)acrylamido]morphinan hydrochloride] |  | 4.4
7 | CN(C(=O)/C=C/c1ccoc1)[C@@H]1CC[C@@]2(O)[C@H]3Cc4ccc(O)c5c4[C@@]2(CCN3CC2CC2)[C@H]1O5.Cl (relative stereo) [Comparative Example 2, 17-cyclopropylmethyl-3,14β-dihydroxy-4,5α-epoxy-6β-[N-methyl-trans-3-(3-furyl)acrylamido]morphinan hydrochloride] |  | 2.6
8 | CN(C(=O)/C=C/c1ccoc1)[C@@H]1CC[C@@]2(O)[C@H]3Cc4ccc(O)c5c4[C@@]2(CCN3CC2CC2)[C@H]1O5.Cl (relative stereo) [Example 1, 17-cyclopropylmethyl-3,14β-dihydroxy-4,5α-epoxy-6β-[N-methyl-trans-3-(3-furyl)acrylamido]morphinan hydrochloride] |  | 3.5
9 | CN(C(=O)/C=C/c1ccoc1)[C@@H]1CC[C@@]2(O)[C@H]3Cc4ccc(O)c5c4[C@@]2(CCN3CC2CC2)[C@H]1O5.Cl (relative stereo) [Example 3, 17-cyclopropylmethyl-3,14β-dihydroxy-4,5α-epoxy-6β-[N-methyl-trans-3-(3-furyl)acrylamido]morphinan hydrochloride] |  | 3.6
10 | CN(C(=O)/C=C/c1ccoc1)[C@@H]1CC[C@@]2(O)[C@H]3Cc4ccc(O)c5c4[C@@]2(CCN3CC2CC2)[C@H]1O5.Cl (relative stereo) [Comparative Example 9, 17-cyclopropylmethyl-3,14β-dihydroxy-4,5α-epoxy-6β-[N-methyl-trans-3-(3-furyl)acrylamido]morphinan hydrochloride] | 5.6 | 
11 | CN(C(=O)/C=C/c1ccoc1)[C@@H]1CC[C@@]2(O)[C@H]3Cc4ccc(O)c5c4[C@@]2(CCN3CC2CC2)[C@H]1O5.Cl (relative stereo) [Comparative Example 3, 17-cyclopropylmethyl-3,14β-dihydroxy-4,5α-epoxy-6β-[N-methyl-trans-3-(3-furyl)acrylamido]morphinan hydrochloride] |  | 3.7
12 | CN(C(=O)/C=C/c1ccoc1)[C@@H]1CC[C@@]2(O)[C@H]3Cc4ccc(O)c5c4[C@@]2(CCN3CC2CC2)[C@H]1O5.Cl (relative stereo) [Comparative Example 7, 17-cyclopropylmethyl-3,14β-dihydroxy-4,5α-epoxy-6β-[N-methyl-trans-3-(3-furyl)acrylamido]morphinan hydrochloride] | 5.8 | 
